Earlier results as cited in patent publication US20110052650A1, “POROUS CRYSTALLINE HYBRID SOLID FOR ADSORBING AND RELEASING GAS OF BIOLOGICAL INTEREST” (Centre National De La Recherche Scientifique - CNR S, priority 2008, published 2011).

S [H2S]
pKa: 6.8
